Holding throughout (experiment): Finger 2 variant affinity (Table 5)
Holding throughout (assay type): binding

In one test the target is Finger-2 Subsite GAG. The text has this:
(§1) Finger 2 variants recognizing each of the 16 triplets of the GXX set (Segal et al. (1999) Proc. Natl. Acad. Sci. U.S.A. 96:2758-2763; and Table 1), as well as one variant recognizing TGA, have been successfully selected. […] Thus, a 5′- and 3′-G selected an arginine at helix positions 6 and −1, respectively, while a central G selected an a histidine or lysine at position 3 of the recognition helix. In contrast, a central A selected an asparagine, a 3′-A a glutamine, a central T a serine or alanine, a 3′-T a threonine or serine, a central C an aspartate or threonine, and a 3′-C an aspartate or glutamate at the corresponding helix positions.
(§2) In Table 5, below, the finger 2 variants generated by phage display selection and refined by site-directed mutagenesis are summarized. Protein designations are in the form pXXX, for clones derived from panning; pmXXX refers to clones refined by mutagenesis. Helix positions −1, 3, and 6 are shown in bold, altered nucleotides are underlined. The values represent the results of at least two independent experiments. The standard error was ±50% or less.

Another test concerns the target Finger-2 Subsite GTG.
Text: as §1, §2

In a further test the target is Finger-2 Subsite GTT.
Text: as §1, §2

The term Kd denotes the concentration at which binding is half-saturated. High values mean a looser complex, low ones a tighter complex. As to “pmGTG: finger 2 variant refined by mutagenesis, helix SRSDELVR”, on Finger-2 Subsite GAG, the “KD,Prot/KD,Zif268” value is on record as 3.0 and the affinity, expressed as Kd, was 30 nM. At Finger-2 Subsite GTG, the “KD,Prot/KD,Zif268” value amounted to 1.5 and the Kd came out at 15 nM.
“pmGTT: finger 2 variant refined by mutagenesis, helix STSGSLVR”: on Finger-2 Subsite GTT, the “KD,Prot/KD,Zif268” value stood at 0.5 and the Kd was determined as 5 nM.

Values taken from patent US7442784B2, “Ligand activated transcriptional regulator proteins” (The Scripps Research Institute, priority 1999, dated 2008).
